Measured values from patent publication EP0452101B1, “Spiro bridged and unbridged heterocyclic compounds” (ISRAEL INSTITUTE FOR BIOLOGICAL RESEARCH, priority 1990, dated 1991).

Experiments:
[1] = Chemical stability (thermal, aqueous solution); format: physicochemical
Text: Most of these compounds are relatively stable. […] Its chemical behaviour resembles that of known 2-oxazoline derivatives. […] The formation of the decomposition products can be monitored with ^1H-NMR by inspection at two regions δ 3.3-3.5 (appearance of two doublets) and 1.9-2.0 ppm (appearance of two additional singlets).
The expected decomposition pattern (when e.g., X is O and Y is N) involves opening of the oxazoline ring to form both amide and ester as shown in Scheme E, in which the quinuclidine-derived compounds are depicted illustratively. The formation of two new singlets at δ 1.9-2.0 ppm as expected for R = Me of these two structures are in agreement with this supposition. [drawing 32]
Ring opening is much faster in the presence of dilute hydrochloric acid. […] The tendency to decomposition of such salts complicates the optical separation of compounds such as AF125 and AF123. However, this problem can be overcome by using the method described for the optical separation of the enantiomers of AF125, or alternatively the amino-alcohols such as 3-aminomethylquinuclidin-3-ol can be resolved and the separated enantiomers can then be cyclized using an ester or imidate as already described. In yet another alternative the N-acyl derivatives of (e.g.) 3-aminomethylquinuclidin-3-ol can be resolved and the separated enantiomers can then be cyclized per se as shown in Scheme K: [drawing 33] […]

M1 muscarinic receptor = biological target: T1, M1 muscarinic receptor (Rattus norvegicus, UniProt P08482); test: Displacement of 3H-QNB from rat cerebral cortex, 50 mM phosphate buffer; format: binding
T1 sequence (P08482 1-460): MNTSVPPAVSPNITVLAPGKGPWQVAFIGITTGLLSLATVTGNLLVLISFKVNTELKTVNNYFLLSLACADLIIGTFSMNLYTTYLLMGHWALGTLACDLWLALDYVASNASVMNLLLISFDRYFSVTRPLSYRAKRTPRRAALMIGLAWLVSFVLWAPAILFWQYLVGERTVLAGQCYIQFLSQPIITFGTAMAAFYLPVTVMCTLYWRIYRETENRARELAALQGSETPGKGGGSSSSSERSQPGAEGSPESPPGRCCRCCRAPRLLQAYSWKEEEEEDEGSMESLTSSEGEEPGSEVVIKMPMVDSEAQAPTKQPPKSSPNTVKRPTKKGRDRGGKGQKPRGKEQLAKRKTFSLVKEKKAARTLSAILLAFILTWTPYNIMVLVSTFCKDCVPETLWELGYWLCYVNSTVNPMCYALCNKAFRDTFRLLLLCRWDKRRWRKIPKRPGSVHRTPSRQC

AF64A-treated rats [2] = test: Passive avoidance (PA) in AF64A-treated rats; format: in vivo; settings: for Retention latency after 72 hours: i.p.
Text: This animal model mimics to a certain extent the cholinergic hypofunction in SDAT (Fisher and Hanin, Ann. Rev. Pharmacol. Toxicol. 26: 161-181, 1986). The method described in Fisher et al (J. Pharmacol. Exptl. Therap., 1991, in the press) and in Fisher et al (Neurosci. Lett. 102: 325-331, 1989) was used here.
No significant differences were found among the different groups of animals tested in the initial latency test; the initial latency ranged from 20 and 31 seconds. In all the experiments using AF150, the compound as free base was dissolved in 10 mM phosphate buffer having pH 7.35.

AF64A-treated rats [3] = test: 8-arm radial maze (RAM) with delay procedure in AF64A-treated rats, Part B; format: in vivo
Description: This animal model mimics the cholinergic hypofunction and cognitive dysfunction in SDAT (Fisher and Hanin, loc cit; Fisher et al, Neurosci. Lett. 102: 325-331, 1989); the method described in the latter publication was used here.
In brief, saline- and A64A-pretreated rats (3 nmole/2 µl./side, icv) were used in these experiments, 2.5 months after the lesion. The experiment was carried out over a three-week period. During the first week the rats were trained to find food pellets in all eight arms of the maze. After learning the task, the rats were trained using the delay procedure. During a predelay session, four of the arms of the maze were closed and the rats collected the food pellets from the remaining four opened arms. During this period working memory errors were recorded. Following a two hour delay, the rats were returned to the maze. All of the arms of the maze were now open but only four of them, those which were closed during the pre-delay session, were baited. The rats had to collect the food pellets without entering any previously visited arms, whether during the predelay or the post-delay session. After reaching a baseline level the rats were tested for their performance during the third week of the experiment in which either 10mM phosphate buffer (pH 7.3), or AF150 (0.07 or 1.0 mg./kg. free base dissolved in 10 mM phosphate buffer, pH 7.3), were administered i.p., immediately after the pre-delay session, once a day for five days.

SMILES: CC1=NCC2(CN3CCC2CC3)O1 (racemic) [AF125, 2-Methyl-spiro(1,3 oxazoline-5,3')quinuclidine]
- thermal stability [1]: thermally stable and can be distilled at 130° without decomposition

SMILES: CC1=NCC2(CCN(C)CC2)O1 [AF150, 2-Methyl-spiro(1,3-oxazoline-5,4')-1'-methylpiperidine]
- RATIOS c:a (M1 muscarinic receptor; KH2 cerebellum : KH1 cortex (3H-QNB)): 3.5
- RATIOS b:a (M1 muscarinic receptor; KL1 : KH1 cortex (3H-QNB)): 49
- RATIOS d:b (M1 muscarinic receptor; KL2 cerebellum : KL1 cortex (3H-QNB)): 17
- % H1 (M1 muscarinic receptor; cortex, Table 5): 13%
- % L1 (M1 muscarinic receptor; cortex, Table 5): 87%
- Retention latency after 72 hours (AF64A-treated rats [2]; AF150 0.1 mg./kg., rats treated with AF64A (3 nmole/2µl./side, icv)): 449.5 ± 52.1 s
- Retention latency after 72 hours (AF64A-treated rats [2]; AF150 0.1 mg./kg., rats treated with saline): 511.8 ± 45.7 s
- Retention latency after 72 hours (AF64A-treated rats [2]; AF150 0.2 mg./kg., rats treated with AF64A): 481.1 ± 54.3 s
- Retention latency after 72 hours (AF64A-treated rats [2]; AF150 0.2 mg./kg., rats treated with saline): 479.1 ± 57.2 s
- Retention latency after 72 hours (AF64A-treated rats [2]; AF150 1.0 mg./kg., rats treated with AF64A): 600.0 ± 0 s
- Retention latency after 72 hours (AF64A-treated rats [2]; AF150 1.0 mg./kg., rats treated with saline): 571.6 ± 28.4 s
- retention latency (AF64A-treated rats [2]; administered orally at 0.2 and 1.0 mg./kg., free base, AF64A-treated rats (not shown)): improved significantly
- Working memory errors (session I) (AF64A-treated rats [3]; AF150 0.07 mg./kg., i.p. group, AF64A rats, week (pre)II, before treatment): 3.33±1.18
- Working memory errors (session I) (AF64A-treated rats [3]; AF150 0.07 mg./kg., i.p. group, Sal. rats, week (pre)II, before treatment): 0.33±0.12
- Working memory errors (session I) (AF64A-treated rats [3]; AF150 0.07 mg./kg., i.p., AF64A rats, week III): 3.75±1.04
- Working memory errors (session I) (AF64A-treated rats [3]; AF150 0.07 mg./kg., i.p., Sal. rats, week III): 0.18±0.07
- Working memory errors (session I) (AF64A-treated rats [3]; AF150 1.0 mg./kg., i.p. group, AF64A rats, week (pre)II, before treatment): 3.00±0.94
- Working memory errors (session I) (AF64A-treated rats [3]; AF150 1.0 mg./kg., i.p. group, Sal. rats, week (pre)II, before treatment): 0.11±0.05
- Working memory errors (session I) (AF64A-treated rats [3]; AF150 1.0 mg./kg., i.p., AF64A rats, week III): 4.22±1.76
- Working memory errors (session I) (AF64A-treated rats [3]; AF150 1.0 mg./kg., i.p., Sal. rats, week III): 0.13±0.07
